Columns and labels:
Format in all cases: in vivo
[1] = system: Diamond Back Moth (Plutella xylostella); assay: Action on diamond back moth (Plutella xylostella), cabbage leaf dip; conditions: foliar, 3rd instar larvae on dipped cabbage leaves, 72 hours after treatment, read-out: mortality in comparison with untreated controls
Description: The active compound is dissolved at the desired concentration in a mixture of 1:1 (vol:vol) distilled water:acetone. Surfactant (Kinetic® HV) is added at a rate of 0.01% (vol/vol).The test solution is prepared at the day of use.
Leaves of cabbage were dipped in test solution and air-dried. Treated leaves were placed in petri dishes lined with moist filter paper and inoculated with ten 3rd instar larvae. Mortality was recorded 72 hours after treatment. Feeding damages were also recorded using a scale of 0-100%.

[2] = system: Southern Armyworm (Spodoptera eridania), 2nd Instar Larvae; assay: Action on southern armyworm (Spodoptera eridania), 2nd instar larvae, sprayed lima bean plants; conditions: 96 h, 2nd instar larvae on lima bean, 4 days after treatment, read-out: mortality in comparison with untreated controls
Description: The active compounds were formulated by a Tecan liquid handler in 100% cyclohexanone as a 10,000 ppm solution supplied in tubes. The 10,000 ppm solution was serially diluted in 100% cyclohexanone to make interim solutions. These served as stock solutions for which final dilutions were made by the Tecan in 50% acetone:50% water (v/v) into 10 or 20 ml glass vials. A nonionic surfactant (Kinetic®) was included in the solution at a volume of 0.01% (v/v). The vials were then inserted into an automated electrostatic sprayer equipped with an atomizing nozzle for application to plants/insects.
Lima bean plants (variety Sieva) were grown 2 plants to a pot and selected for treatment at the 1st true leaf stage. Test solutions were sprayed onto the foliage by an automated electrostatic plant sprayer equipped with an atomizing spray nozzle. The plants were dried in the sprayer fume hood and then removed from the sprayer. Each pot was placed into perforated plastic bags with a zip closure. About 10 to 11 armyworm larvae were placed into the bag and the bags zipped closed. Test plants were maintained in a growth room at about 250C and about 20-40% relative humidity for 4 days, avoiding direct exposure to fluorescent light (24 hour photoperiod) to prevent trapping of heat inside the bags. Mortality and reduced feeding were assessed 4 days after treatment, compared to untreated control plants.

[3] = system: tobacco budworm (Heliothis virescens); assay: Action on tobacco budworm (Heliothis virescens), 96-well microtiter plate diet test; conditions: 120 h, egg and larval mortality after 5 days, read-out: mortality in comparison with untreated controls
Description: For evaluating control of tobacco budworm (Helliothis virescens) the test unit consisted of 96-well-microtiter plates containing an insect diet and 15-25 H. virescens eggs.
The compounds were formulated using a solution containing 75% v/v water and 25% v/v DMSO. Different concentrations of formulated compounds were sprayed onto the insect diet at 10 μl, using a custom built micro atomizer, at two replications.
After application, microtiter plates were incubated at about 28±1° C. and about 80±5% relative humidity for 5 days. Egg and larval mortality was then visually assessed.

[4] = system: yellow fever mosquito (Aedes aegypti); assay: whole plant or invertebrate; conditions: 48 h, larval mortality visually assessed after 2 days, read-out: mortality in comparison with untreated controls
Description: For evaluating control of yellow fever mosquito (Aedes aegypti) the test unit consisted of 96-well-microtiter plates containing 200 μl of tap water per well and 5-15 freshly hatched A. aegypti larvae.
The active compounds were formulated using a solution containing 75% (v/v) water and 25% (v/v) DMSO. Different concentrations of formulated compounds or mixtures were sprayed onto the insect diet at 2.5 μl, using a custom built micro atomizer, at two replications.
After application, microtiter plates were incubated at 28±1° C., 80±5% RH for 2 days. Larval mortality was then visually assessed.

[5] = system: boll weevil (Anthonomus grandis); assay: Action on boll weevil (Anthonomus grandis), 96-well microtiter plate diet test; conditions: 120 h, egg and larval mortality after 5 days, read-out: mortality in comparison with untreated controls
Description: For evaluating control of boll weevil (Anthonomus grandis) the test unit consisted of 96-well-microtiter plates containing an insect diet and 5-10 A. grandis eggs.
The compounds were formulated using a solution containing 75% v/v water and 25% v/v DMSO. Different concentrations of formulated compounds were sprayed onto the insect diet at 5 μl, using a custom built micro atomizer, at two replications.
After application, microtiter plates were incubated at about 25±1° C. and about 75±5% relative humidity for 5 days. Egg and larval mortality was then visually assessed.

[6] = system: Orchid thrips (Dichromothrips corbetti); assay: Action on orchid thrips (Dichromothrips corbetti), floral-immersion technique; conditions: adult thrips, mortality 72 hours after treatment, read-out: mortality in comparison with untreated controls
Description: Dichromothrips corbetti adults used for bioassay were obtained from a colony maintained continuously under laboratory conditions. For testing purposes, the test compound is diluted in a 1:1 mixture of acetone:water (vol:vol), plus Kinetic® HV at a rate of 0.01% v/v.
Thrips potency of each compound was evaluated by using a floral-immersion technique. All petals of individual, intact orchid flowers were dipped into treatment solution and allowed to dry in Petri dishes. Treated petals were placed into individual re-sealable plastic along with about 20 adult thrips. All test arenas were held under continuous light and a temperature of about 28° C. for duration of the assay. After 3 days, the numbers of live thrips were counted on each petal. The percent mortality was recorded 72 hours after treatment.

Compound	mortality at 500 ppm [1] [%]	mortality at 300 ppm [2] [%]	mortality at 800 ppm [3] [%]	mortality at 800 ppm [4] [%]	mortality at 800 ppm [5] [%]	mortality at 500 ppm [6] [%]
CC(/C=N/N=C1\SCC(=O)N1c1ccccc1C(C)C)Oc1cnc(N(C)c2ccc(OC(F)(F)F)cc2)nc1 (stereo not shown) [Compound C-21, (2Z)-3-(2-isopropylphenyl)-2-[(E)-2-[2-[N-methyl-4-(trifluoromethoxy)anilino]pyrimidin-5-yl]oxypropylidenehydrazono]thiazolidin-4-one]	≥ 75					
Cc1cc(N(C)c2ccc(OC(F)(F)F)cc2)nc(C)c1OC/C=N/N=C1\SCC(=O)N1c1ccccc1C(C)C [Compound C-31, (2Z)-2-[(E)-2-[[2,4-dimethyl-6-[N-methyl-4-(trifluoromethoxy)anilino]-3-pyridyl]oxy]ethylidenehydrazono]-3-(2-isopropylphenyl)thiazolidin-4-one]	≥ 75	≥ 75	≥ 75	≥ 75	≥ 75	
CC(C)c1ccccc1NC(=S)N/N=C/C(=O)Nc1cnc(N(C)c2ccc(OC(F)(F)F)cc2)nc1 [Compound C-13, (2E)-2-[(2-isopropylphenyl)carbamothioylhydrazono]-N-[2-[N-methyl-4-(trifluoromethoxy)anilino]pyrimidin-5-yl]acetamide]	≥ 75	≥ 75	≥ 75			
CC(/C=N/N=C1\SCC(=O)N1c1ccccc1C(C)C)=C\c1ccc(N(C)c2ccc(OC(F)(F)F)cc2)nn1 [Compound C-27, (2Z)-3-(2-isopropylphenyl)-2-[(E)-[(E)-2-methyl-3-[6-[N-methyl-4-(trifluoromethoxy)anilino]pyridazin-3-yl]prop-2-enylidene]hydrazono]thiazolidin-4-one]	≥ 75	≥ 75	≥ 75	≥ 75	≥ 75	≥ 75
CC(/C=N/NC(=S)Nc1ccccc1C(C)C)Oc1cnc(N(C)c2ccc(OC(F)(F)F)cc2)nc1 (stereo not shown) [Compound C-20, 1-(2-isopropylphenyl)-3-[(E)-2-[2-[N-methyl-4-(trifluoromethoxy)anilino]pyrimidin-5-yl]oxypropylideneamino]thiourea]	≥ 75					
CC(C)c1ccccc1N1C(=O)CS/C1=N\N=C\COc1cnc(N(C)c2ccc(OC(F)(F)F)cc2)nc1 [Compound C-19, (2Z)-3-(2-isopropylphenyl)-2-[(E)-2-[2-[N-methyl-4-(trifluoromethoxy)anilino]pyrimidin-5-yl]oxyethylidenehydrazono]thiazolidin-4-one]	≥ 75	≥ 75				
CC(C)c1ccccc1N1CC(=O)N(/N=C/C=C/c2cnc(N(C)c3ccc(OC(F)(F)F)cc3)nc2)C1=O [Compound C-14, 1-(2-isopropylphenyl)-3-[(E)-[(E)-3-[2-[N-methyl-4-(trifluoromethoxy)anilino]pyrimidin-5-yl]prop-2-enylidene]amino]imidazolidine-2,4-dione]	≥ 75		≥ 75		≥ 75	≥ 75
Cc1cc(N(C)c2ccc(OC(F)(F)F)cc2)nc(C)c1OC/C=N/NC(=S)Nc1ccccc1C(C)C [Compound C-30, 1-[(E)-2-[[2,4-dimethyl-6-[N-methyl-4-(trifluoromethoxy)anilino]-3-pyridyl]oxy]ethylideneamino]-3-(2-isopropylphenyl)thiourea]	≥ 75		≥ 75			
Cc1nc(N(C)c2ccc(OC(F)(F)F)cc2)ncc1CC(C)/C=N/N=C1\SCC(=O)N1c1ccccc1C(C)C (stereo not shown) [Compound C-24, (2Z)-3-(2-isopropylphenyl)-2-[(E)-[2-methyl-3-[4-methyl-2-[N-methyl-4-(trifluoromethoxy)anilino]pyrimidin-5-yl]propylidene]hydrazono]thiazolidin-4-one]	≥ 75		≥ 75			
CC(C)c1ccccc1NC(=S)N/N=C/COc1cnc(N(C)c2ccc(OC(F)(F)F)cc2)nc1 [Compound C-18, 1-(2-isopropylphenyl)-3-[(E)-2-[2-[N-methyl-4-(trifluoromethoxy)anilino]pyrimidin-5-yl]oxyethylideneamino]thiourea]	≥ 75	≥ 75				
CC(/C=N/N=C1\SCC(=O)N1c1ccccc1C(C)C)Oc1ccc(N(C)c2ccc(OC(F)(F)F)cc2)nn1 (stereo not shown) [Compound C-28, (2Z)-3-(2-isopropylphenyl)-2-[(E)-2-[6-[N-methyl-4-(trifluoromethoxy)anilino]pyridazin-3-yl]oxypropylidenehydrazono]thiazolidin-4-one]	≥ 75					
CC(C=N/N=C1\SCC(=O)N1c1c(C)cccc1C)=Cc1cnc(Nc2ccc(OC(F)(F)F)cc2)nc1 [Compound C-4, (2Z)-3-(2,6-dimethylphenyl)-2-[(2-methyl-3-[2-[4-(trifluoromethoxy)anilino]pyrimidin-5-yl]prop-2-enylidene]hydrazono]thiazolidin-4-one]	≥ 75	≥ 75	≥ 75	≥ 75	≥ 75	
CC(C)c1ccccc1N1C(=O)CS/C1=N\N=C\C(=O)Nc1cnc(N(C)c2ccc(OC(F)(F)F)cc2)nc1 [Compound C-11, (2E)-2-[(Z)-[3-(2-isopropylphenyl)-4-oxo-thiazolidin-2-ylidene]hydrazono]-N-[2-[N-methyl-4-(trifluoromethoxy)anilino]pyrimidin-5-yl]acetamide]	≥ 75	≥ 75	≥ 75			
CC(C)c1ccccc1N1C(=O)CS/C1=N\N=C\COc1ccc(N(C)c2ccc(OC(F)(F)F)cc2)nn1 [Compound C-29, (2Z)-3-(2-isopropylphenyl)-2-[(E)-2-[6-[N-methyl-4-(trifluoromethoxy)anilino]pyridazin-3-yl]oxyethylidenehydrazono]thiazolidin-4-one]	≥ 75					
CC(/C=N/NC(=S)Nc1c(C)cccc1C)=C\c1cnc(Nc2ccc(OC(F)(F)F)cc2)nc1 [Compound C-2, 1-(2,6-dimethylphenyl)-3-[(E)-[(E)-2-methyl-3-[2-[4-(trifluoromethoxy)anilino]pyrimidin-5-yl]prop-2-enylidene]amino]thiourea]	≥ 75	≥ 75	≥ 75	≥ 75	≥ 75	
CC(C)c1ccccc1N1C(=O)CS/C1=N\N=C\C(=O)N(C)c1cnc(N(C)c2ccc(OC(F)(F)F)cc2)nc1 [Compound C-10, (2E)-2-[(Z)-[3-(2-isopropylphenyl)-4-oxo-thiazolidin-2-ylidene]hydrazono]-N-methyl-N-[2-[N-methyl-4-(trifluoromethoxy)anilino]pyrimidin-5-yl]acetamide]	≥ 75	≥ 75	≥ 75			
